{"source": "paper PMC11492916", "about": "(OncoTargets and Therapy, 2024)", "key": {"HeLa": {"system": "HeLa", "experiment": "MTT cytotoxicity assay, HeLa cervical cancer cells", "format": "cell-based", "conditions": "Homo sapiens, 48 h, read-out: IC50, cytotoxic activity against HeLa"}, "T47D": {"system": "T47D", "experiment": "MTT cytotoxicity assay, T47D breast cancer cells", "format": "cell-based", "conditions": "Homo sapiens, 48 h, read-out: IC50, cytotoxic activity against T47D"}}, "note": "“And” between values parts separate entries of the source, which are not always exact repeats. Identical values can stand only once."}
{"smiles": "COc1cccc2c1C(=O)c1c(O)c3c(c(O)c1C2=O)C[C@@](O)(C(=O)CO)C[C@@H]3O[C@H]1C[C@H](N)[C@H](O)[C@H](C)O1", "note": "[DOX, doxorubicin]", "values": [{"measurement": "IC50", "setting": "HeLa", "result": "3.38 µg/mL and 6.22 µM"}, {"measurement": "IC50", "setting": "T47D", "result": "0.17 µg/mL and 310 nM"}]}
